Experiments:
S. aureus = test system: S. aureus; parameters: method as in PMID 23401520; conditions: incubation for 3–4 days; cited from earlier work
E. coli strain K12 = test system: E. coli strain K12; parameters: method as in PMID 23401520; conditions: initial small-molecule library screen; cited from earlier work
[1] = test system: MRSA strains LAC and EMRSA-15; assay: Serial passage resistance study; assay type: cell-based, Staphylococcus aureus; conditions: 25 days serial passage, after 14 days, then stable for 11 days
Experimental: plotted against time following 18 hours of growth at 37 °C. The icons represent the mean of three biological replicates.
Supplementary Materials and Methods
Synergistic activity with clinically relevant antibiotics
The synergistic ability of 1771 and 13 was achieved using the chequerboard micro-broth dilution method. Antibiotic partners tested included: oxacillin, daptomycin, vancomycin, gentamicin, and linezolid with starting concentrations of 256 µg/ml, 8 µg/ml, 8 µg/ml, 4 µg/ml, and 8 µg/ml respectively. Overnight cultures were sub-cultured 1:200 in fresh MHB and grown to optical density of OD600nm of 0.5-0.6 and prepared according to the MIC analysis. Following an 18 h incubation at 37 °C the sum of the fractional inhibitory […]
using the equation ΣFIC = FICA +FICB = (MICA in combination with B/MICA) + (MICB in combination with A/MICB). The resulting value was interpreted according to the following rules: synergistic (FIC ≤ 0.5), additive (FIC >0.5, <1) or indifferent (FIC ≥ 1 <4).
Serial passage resistance study
A serial passage in 1771 was performed using MRSA strains, LAC and EMRSA-15. For this assay, 15 ml tubes were filled with 3 ml of MHB and varying concentrations of 1771. The tubes containing either LAC or EMRSA-15 were incubated at 37 °C for 24 h before each passage. […]

LTA = test system: LTA; parameters: method as in PMID 23401520; conditions: cited from earlier work

In the case of `O=C(COC(=O)Cc1coc2ccc3ccccc3c12)Nc1nnc(-c2ccccc2)o1` [Compound 1771, 2-Oxo-2-((5-phenyl-1,3,4-oxadiazol-2-yl)amino)ethyl 2-(Naphtho[2,1-b]furan-1-yl)acetate, reference compound], the resistant mutant selection (S. aureus) is listed as “did not result in resistant mutant selection”, the “effect on the growth of Escherichia coli” value (E. coli strain K12) is listed as “no effect on the growth” and the “change of MIC on serial passage” value [1] is listed as “increased twofold”. The LTA signal (LTA) was “dose-dependent reduction in the LTA signal”.

Reference: paper PMC10644342, “Improved Antibacterial Activity of 1,3,4-Oxadiazole-Based Compounds That Restrict Staphylococcus aureus Growth Independent of LtaS Function” (ACS Infectious Diseases, 2023)
